# The source made the active and inactive calls. No cut-off for these calls is given here.
# Tests used:
# LNCaP = experiment: Antiproliferative activity against human LNCaP cells incubated for 6 days by CellTiter-Glo assay; type: functional, cell-based
# [1] = target: Voltage-gated inwardly rectifying potassium channel KCNH2 (Homo sapiens, UniProt Q12809); experiment: Inhibition of human ERG by patch clamp assay; type: toxicity
# [2] = target: T1, Androgen receptor (Homo sapiens) (UniProt P10275); experiment: Potency index, ratio of galeterone DC50 to test compound DC50 for induction of androgen receptor degradation in human LNCaP cells; type: cell-based
# T1 sequence (whole entry): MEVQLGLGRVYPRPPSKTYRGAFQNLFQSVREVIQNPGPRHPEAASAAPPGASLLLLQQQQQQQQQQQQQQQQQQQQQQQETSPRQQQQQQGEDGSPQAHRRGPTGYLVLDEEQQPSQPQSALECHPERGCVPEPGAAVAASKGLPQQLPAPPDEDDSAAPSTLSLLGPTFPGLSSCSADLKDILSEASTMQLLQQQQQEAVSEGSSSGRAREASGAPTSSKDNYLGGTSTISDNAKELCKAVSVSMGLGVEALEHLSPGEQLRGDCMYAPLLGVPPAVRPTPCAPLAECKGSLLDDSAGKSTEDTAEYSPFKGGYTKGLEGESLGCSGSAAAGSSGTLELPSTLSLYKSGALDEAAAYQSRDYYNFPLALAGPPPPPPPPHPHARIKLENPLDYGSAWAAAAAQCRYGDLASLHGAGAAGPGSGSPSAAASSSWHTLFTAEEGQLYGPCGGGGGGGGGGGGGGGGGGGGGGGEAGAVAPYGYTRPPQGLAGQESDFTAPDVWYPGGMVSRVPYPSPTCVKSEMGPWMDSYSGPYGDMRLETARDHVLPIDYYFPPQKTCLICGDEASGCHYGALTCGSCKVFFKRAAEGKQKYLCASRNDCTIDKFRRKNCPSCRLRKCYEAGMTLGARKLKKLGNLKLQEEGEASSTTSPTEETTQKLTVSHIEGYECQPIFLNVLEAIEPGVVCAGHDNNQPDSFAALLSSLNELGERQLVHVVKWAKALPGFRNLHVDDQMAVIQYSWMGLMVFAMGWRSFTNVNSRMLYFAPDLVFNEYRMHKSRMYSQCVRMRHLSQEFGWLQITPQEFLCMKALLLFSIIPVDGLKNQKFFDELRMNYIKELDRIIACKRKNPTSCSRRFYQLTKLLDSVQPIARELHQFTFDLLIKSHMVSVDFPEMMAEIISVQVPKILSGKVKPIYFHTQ
# Androgen receptor [3] = target: T2, Androgen receptor (Homo sapiens, UniProt P10275); experiment: Induction of androgen receptor degradation in human LNCaP cells incubated for 24 hrs by ELISA; type: cell-based
# T2 sequence (P10275 whole entry): T1 sequence (whole entry)
# [4] = target: T1, Androgen receptor (Homo sapiens); experiment: Induction of androgen receptor degradation in human LNCaP cells at 20 uM incubated for 24 hrs in presence of MG-132; type: cell-based
# [5] = target: T1, Androgen receptor (Homo sapiens); experiment: Induction of androgen receptor degradation in human LNCaP cells incubated for 24 hrs by Western blot analysis; type: cell-based; settings: dose 1-20 µM
# LNCaP/AR = experiment: Antitumor activity against human LNCaP/AR cells xenografted in SCID male mouse assessed as tumor growth inhibition at 30 mg/kg, po administered once daily for 28 days and measured every 3 days; type: functional, organism-based; settings: time 28.0 day
# [6] = target: Androgen receptor (Homo sapiens) (UniProt P10275); experiment: In vivo induction of androgen receptor in human LNCaP/AR cells xenografted in SCID mouse assessed as reduction in AR protein level at 30 mg/kg, po administered once daily for 28 days by ELISA; set-up: scale not given: the % may be the effect or the level left; settings: time 28.0 day
# Mus musculus = experiment: In vivo induction of androgen receptor in human LNCaP/AR cells xenografted in SCID mouse assessed as reduction in PSA level at 10 to 30 mg/kg, po administered once daily for 28 days by ELISA; type: functional, organism-based; settings: dose 10-30 mg/kg, time 28.0 day
# [7] = target: T1, Androgen receptor (Homo sapiens); experiment: Induction of androgen receptor degradation in human LNCaP cells at 20 uM incubated for 24 hrs; type: cell-based
# [8] = target: T1, Androgen receptor (Homo sapiens); experiment: Induction of androgen receptor degradation in human VCaP cells incubated for 24 hrs by Western blot analysis; type: cell-based; settings: dose 1-20 µM
# [9] = target: T1, Androgen receptor (Homo sapiens); experiment: Induction of androgen receptor degradation in human LNCaP cells assessed as reduction in AR mRNA level incubated for 24 hrs by qPCR analysis; type: cell-based; settings: dose 1-20 µM
# [10] = target: T1, Androgen receptor (Homo sapiens); experiment: Induction of androgen receptor degradation in human 22Rv1 cells incubated for 24 hrs by Western blot analysis; type: cell-based; settings: dose 1-20 µM
# 22Rv1 = experiment: Induction of androgen receptor splice variant 7 degradation in human 22Rv1 cells at 1 to 20 uM incubated for 24 hrs by Western blot analysis; type: cell-based; settings: dose 1-20 µM
# LNCaP C4-2B = experiment: Antitumor activity against enzalutamide resistant human LNCaP C4-2B cells xenografted in BALB/c mouse assessed as tumor growth suppression at 10 mg/kg, po administered once daily for 28 days and measured every 3 days; type: functional, organism-based; settings: time 28.0 day
# [11] = tested on: Androgen receptor (Homo sapiens), P10275 [F877L]; experiment: Antagonist activity at androgen receptor F876L mutant expressed in HEK293 cells assessed as reduction in DHT-induced transcriptional activation of androgen receptor incubated for 24 hrs by Steady-Glo assay relative to control; type: cell-based; set-up: scale not given: the % may be the effect or the level left; settings: filed as antagonist
# [12] = target: Androgen receptor (Homo sapiens) (UniProt P10275); experiment: In vivo induction of androgen receptor in human LNCaP/AR cells xenografted in SCID mouse assessed as reduction in AR protein level at 10 mg/kg, po administered once daily for 28 days by ELISA; set-up: scale not given: the % may be the effect or the level left; settings: time 28.0 day
# [13] = target: T3, Steroid 17-alpha-hydroxylase/17,20 lyase (Homo sapiens, UniProt P05093); experiment: Inhibition of recombinant human CYP17A1 using progesterone as substrate incubated for 5 mins in presence of NADPH by LC-MS/MS analysis; type: ADME
# T3 sequence (P05093 whole entry): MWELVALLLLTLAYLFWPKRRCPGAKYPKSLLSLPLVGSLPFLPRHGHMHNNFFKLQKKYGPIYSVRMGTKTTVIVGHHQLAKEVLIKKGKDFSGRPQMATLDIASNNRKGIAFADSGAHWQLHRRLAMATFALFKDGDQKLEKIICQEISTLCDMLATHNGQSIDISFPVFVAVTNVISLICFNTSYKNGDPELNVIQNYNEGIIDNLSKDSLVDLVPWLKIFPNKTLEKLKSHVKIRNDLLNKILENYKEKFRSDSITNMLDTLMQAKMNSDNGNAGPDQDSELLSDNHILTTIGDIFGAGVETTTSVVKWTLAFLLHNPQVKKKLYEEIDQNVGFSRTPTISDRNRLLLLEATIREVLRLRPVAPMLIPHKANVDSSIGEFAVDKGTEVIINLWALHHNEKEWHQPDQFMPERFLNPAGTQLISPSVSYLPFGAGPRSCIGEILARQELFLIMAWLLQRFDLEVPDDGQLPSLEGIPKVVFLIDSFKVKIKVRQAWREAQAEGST
# [14] = Tmax in Sprague-Dawley rat at 10 mg/kg, po measured upto 24 hrs by LC-MS/MS analysis; type: ADME, organism-based; settings: in vivo
# Androgen receptor [15] = target: T2, Androgen receptor; experiment: Antagonist activity at wild type androgen receptor expressed in HEK293 cells assessed as reduction in DHT-induced transcriptional activation of androgen receptor incubated for 24 hrs by Steady-Glo assay; type: cell-based
# [16] = AUC(0 to t) in Sprague-Dawley rat at 10 mg/kg, po measured upto 24 hrs by LC-MS/MS analysis; type: ADME, organism-based; settings: in vivo
# [17] = Half life in Sprague-Dawley rat at 10 mg/kg, po measured upto 24 hrs by LC-MS/MS analysis; type: ADME, organism-based; settings: in vivo
# [18] = Cmax in Sprague-Dawley rat at 10 mg/kg, po measured upto 24 hrs by LC-MS/MS analysis; type: ADME, organism-based; set-up: dose 10 mg/kg, time < 24 hrs, route po; settings: in vivo
# Voltage-gated inwardly rectifying potassium channel KCNH2, sequence (Q12809 whole entry): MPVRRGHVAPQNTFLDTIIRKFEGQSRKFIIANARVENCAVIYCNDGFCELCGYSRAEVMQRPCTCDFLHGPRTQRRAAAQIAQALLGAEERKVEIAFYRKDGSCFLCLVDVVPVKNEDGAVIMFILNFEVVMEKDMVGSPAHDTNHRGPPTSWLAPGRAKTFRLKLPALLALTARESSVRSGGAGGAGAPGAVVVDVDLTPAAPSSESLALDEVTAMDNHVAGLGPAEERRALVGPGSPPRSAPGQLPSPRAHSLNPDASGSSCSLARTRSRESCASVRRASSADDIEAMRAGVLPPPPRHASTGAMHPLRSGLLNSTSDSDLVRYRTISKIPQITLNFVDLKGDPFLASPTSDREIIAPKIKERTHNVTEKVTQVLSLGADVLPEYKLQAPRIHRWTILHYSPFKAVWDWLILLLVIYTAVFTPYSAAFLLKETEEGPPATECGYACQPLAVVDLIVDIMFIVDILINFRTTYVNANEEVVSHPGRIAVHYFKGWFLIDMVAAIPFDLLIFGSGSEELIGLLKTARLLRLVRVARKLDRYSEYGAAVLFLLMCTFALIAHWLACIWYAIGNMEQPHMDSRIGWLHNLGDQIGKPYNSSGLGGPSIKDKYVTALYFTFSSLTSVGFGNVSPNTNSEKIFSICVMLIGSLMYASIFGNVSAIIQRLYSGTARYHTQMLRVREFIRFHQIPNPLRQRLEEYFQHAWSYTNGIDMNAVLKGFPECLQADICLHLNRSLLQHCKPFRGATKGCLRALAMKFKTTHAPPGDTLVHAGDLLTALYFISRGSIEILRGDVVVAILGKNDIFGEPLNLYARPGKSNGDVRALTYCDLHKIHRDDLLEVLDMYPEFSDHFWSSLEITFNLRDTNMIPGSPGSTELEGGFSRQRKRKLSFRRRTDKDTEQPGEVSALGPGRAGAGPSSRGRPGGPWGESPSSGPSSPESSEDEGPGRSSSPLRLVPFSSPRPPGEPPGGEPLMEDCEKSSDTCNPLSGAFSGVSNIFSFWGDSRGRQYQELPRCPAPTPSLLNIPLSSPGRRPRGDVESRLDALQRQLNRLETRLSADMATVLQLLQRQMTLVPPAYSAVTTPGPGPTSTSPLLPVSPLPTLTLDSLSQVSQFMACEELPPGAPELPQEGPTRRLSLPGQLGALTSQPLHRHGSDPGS
# Androgen receptor (Homo sapiens), P10275 [F877L], sequence (P10275 whole entry F877L): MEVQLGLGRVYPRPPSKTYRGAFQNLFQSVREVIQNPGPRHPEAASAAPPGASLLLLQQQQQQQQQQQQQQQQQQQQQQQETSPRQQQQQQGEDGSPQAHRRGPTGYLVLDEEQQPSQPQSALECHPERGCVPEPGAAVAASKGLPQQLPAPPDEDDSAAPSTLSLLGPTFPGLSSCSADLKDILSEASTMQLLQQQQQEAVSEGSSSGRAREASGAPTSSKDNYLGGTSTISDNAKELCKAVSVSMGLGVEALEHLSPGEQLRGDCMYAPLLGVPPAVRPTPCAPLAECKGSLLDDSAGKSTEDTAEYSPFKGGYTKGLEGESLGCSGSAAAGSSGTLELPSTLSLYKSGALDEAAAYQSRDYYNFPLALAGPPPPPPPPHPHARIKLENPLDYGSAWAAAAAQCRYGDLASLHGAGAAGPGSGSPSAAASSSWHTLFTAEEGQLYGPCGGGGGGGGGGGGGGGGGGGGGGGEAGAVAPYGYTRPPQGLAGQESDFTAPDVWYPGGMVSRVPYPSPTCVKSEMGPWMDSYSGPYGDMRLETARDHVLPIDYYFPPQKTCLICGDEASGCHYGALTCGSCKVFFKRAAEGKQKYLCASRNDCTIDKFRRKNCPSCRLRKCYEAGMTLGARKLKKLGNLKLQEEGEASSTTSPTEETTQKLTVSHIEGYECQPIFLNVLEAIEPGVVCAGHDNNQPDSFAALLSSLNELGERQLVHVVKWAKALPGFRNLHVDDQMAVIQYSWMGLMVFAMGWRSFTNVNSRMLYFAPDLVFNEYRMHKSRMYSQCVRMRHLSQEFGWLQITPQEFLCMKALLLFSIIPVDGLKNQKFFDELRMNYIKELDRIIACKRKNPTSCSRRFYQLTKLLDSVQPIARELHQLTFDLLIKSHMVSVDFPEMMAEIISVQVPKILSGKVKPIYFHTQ
SMILES,IC50 (LNCaP) [nM],IC50 [1] [nM],EC50 (Androgen receptor [3]) [nM],also measured
CC(C)(O)c1cn(C2=CCC3C4CC=C5C[C@@H](NC(=O)c6ccnnc6)CC[C@]5(C)C4CC[C@]23C)cn1 (some centres undefined),4630,,,
Cc1cn(C2=CCC3C4CC=C5C[C@@H](NS(=O)(=O)c6ccc(C#N)cc6)CC[C@]5(C)C4CC[C@]23C)cn1 (some centres undefined),3650,,,
COc1ccc(C(=O)N[C@H]2CC[C@@]3(C)C(=CCC4C3CC[C@]3(C)C(n5cnc(C)c5)=CCC43)C2)cc1 (some centres undefined),> 10000,,,
C[C@]12CC[C@H](NC(=O)c3ccnnc3)CC1=CCC1C2CC[C@]2(C)C(n3cnc(C(F)(F)F)c3)=CCC12 (some centres undefined),819,,,
CCc1cn(C2=CCC3C4CC=C5C[C@@H](NC(=O)c6ccnnc6)CC[C@]5(C)C4CC[C@]23C)cn1 (some centres undefined),427,6580,,
Cc1cn(C2=CCC3C4CC=C5C[C@@H](NC(=O)c6ncccn6)CC[C@]5(C)C4CC[C@]23C)cn1 (some centres undefined),2420,,,
Cc1cn(C2=CCC3C4CC=C5C[C@@H](NC(=O)c6ccncn6)CC[C@]5(C)C4CC[C@]23C)cn1 (some centres undefined),1240,,,
Cc1cn(C2=CCC3C4CC=C5C[C@@H](NC(=O)c6ccc(C#N)cc6)CC[C@]5(C)C4CC[C@]23C)cn1 (some centres undefined),643,> 40000,1560,Ratio [2]: 2.5
Cc1cn(C2=CCC3C4CC=C5C[C@@H](NS(=O)(=O)c6cccnc6)CC[C@]5(C)C4CC[C@]23C)cn1 (some centres undefined),2100,,,
C[C@]12CC[C@H](NC(=O)c3ccnnc3)CC1=CCC1C2CC[C@]2(C)C(n3cnc([N+](=O)[O-])c3)=CCC12 (some centres undefined),418,> 40000,3310,Ratio [2]: 2.5
CC(O)c1cn(C2=CCC3C4CC=C5C[C@@H](NC(=O)c6ccnnc6)CC[C@]5(C)C4CC[C@]23C)cn1 (some centres undefined),1830,,,
COc1cn(C2=CCC3C4CC=C5C[C@@H](NC(=O)c6ccncc6)CC[C@]5(C)C4CC[C@]23C)cn1 (some centres undefined),436,4070,,
C[C@]12CC[C@H](NC(=O)c3ccnnc3)CC1=CCC1C2CC[C@]2(C)C(n3cnc(F)c3)=CCC12 (some centres undefined),2350,,,
C[C@]12CC[C@H](NC(=O)c3ccnnc3)CC1=CCC1C2CC[C@]2(C)C(n3cnc(Cl)c3)=CCC12 (some centres undefined),608,24600,,
Cc1cn(C2=CCC3C4CC=C5C[C@@H](NC(=O)n6ccnc6)CC[C@]5(C)C4CC[C@]23C)cn1 (some centres undefined),6550,,,
CCc1cn(C2=CCC3C4CC=C5C[C@@H](NC(=O)c6ccncc6)CC[C@]5(C)C4CC[C@]23C)cn1 (some centres undefined),356,3580,3210,Ratio [2]: 2.5
Cc1cn(C2=CCC3C4CC=C5C[C@@H](NC(=O)c6ccc([N+](=O)[O-])cc6)CC[C@]5(C)C4CC[C@]23C)cn1 (some centres undefined),595,> 40000,2600,Ratio [2]: 2.5
Cc1cn(C2=CCC3C4CC=C5C[C@@H](NC(=O)c6ccc(F)cc6)CC[C@]5(C)C4CC[C@]23C)cn1 (some centres undefined),,,,Activity [4]: inactive; Activity [5]: Dose-Dependent Effect; Activity (LNCaP/AR): Active; Activity [6]: 52%; Activity (Mus musculus): Active; Activity [7]: Active; Activity [8]: Dose-Dependent Effect; Activity [9]: Dose-Dependent Effect; Activity [10]: Dose-Dependent Effect; Activity (22Rv1): Active; Activity (LNCaP C4-2B): inactive; Activity [11]: 68%; Activity [12]: 40%
Cc1cn(C2=CCC3C4CC=C5C[C@@H](NC(=O)c6ccncc6)CC[C@]5(C)C4CC[C@]23C)cn1 (some centres undefined),341,6470,2840,IC50 [13]: 2590 nM; Tmax [14]: 2.17 h; IC50 (Androgen receptor [15]): 612 nM; AUCt [16]: 24800 h/ng/mL; half-life [17]: 2.8 h; Cmax [18]: 2670 ng/mL
Cc1cn(C2=CCC3C4CC=C5C[C@@H](NC(=O)c6ccncc6F)CC[C@]5(C)C4CC[C@]23C)cn1 (some centres undefined),752,> 40000,5720,Ratio [2]: 2.5
CC(=O)c1cn(C2=CCC3C4CC=C5C[C@@H](NC(=O)c6ccnnc6)CC[C@]5(C)C4CC[C@]23C)cn1 (some centres undefined),1380,,,
C[C@]12CC[C@H](NC(=O)c3ccnnc3)CC1=CCC1C2CC[C@]2(C)C(n3cnc(Br)c3)=CCC12 (some centres undefined),1490,,,
Cc1cn(C2=CCC3C4CC=C5C[C@@H](NC(=O)c6ccc(S(C)(=O)=O)cc6)CC[C@]5(C)C4CC[C@]23C)cn1 (some centres undefined),527,> 40000,1370,Ratio [2]: 2.5
C[C@]12CC[C@H](NC(=O)c3ccnnc3)CC1=CCC1C2CC[C@]2(C)C(n3cnc(C#N)c3)=CCC12 (some centres undefined),471,2870,,
COc1cn(C2=CCC3C4CC=C5C[C@@H](NC(=O)c6ccnnc6)CC[C@]5(C)C4CC[C@]23C)cn1 (some centres undefined),475,856000,3880,Ratio [2]: 2.5
CC(C)(C)c1cn(C2=CCC3C4CC=C5C[C@@H](NC(=O)c6ccnnc6)CC[C@]5(C)C4CC[C@]23C)cn1 (some centres undefined),1120,,,
CC(C)c1cn(C2=CCC3C4CC=C5C[C@@H](NC(=O)c6ccncc6)CC[C@]5(C)C4CC[C@]23C)cn1 (some centres undefined),734,15000,4760,Ratio [2]: 2.5
Cc1cn(C2=CCC3C4CC=C5C[C@@H](NS(=O)(=O)c6ccc([N+](=O)[O-])cc6)CC[C@]5(C)C4CC[C@]23C)cn1 (some centres undefined),3440,,,
CC(C)c1cn(C2=CCC3C4CC=C5C[C@@H](NC(=O)c6ccnnc6)CC[C@]5(C)C4CC[C@]23C)cn1 (some centres undefined),958,> 40000,,
COC(=O)c1cn(C2=CCC3C4CC=C5C[C@@H](NC(=O)c6ccnnc6)CC[C@]5(C)C4CC[C@]23C)cn1 (some centres undefined),1960,,,

# — ChEMBL document CHEMBL5331145, “Discovery of a Novel Bifunctional Steroid Analog, YXG-158, as an Androgen Receptor Degrader and CYP17A1 Inhibitor for the Treatment of Enzalutamide-Resistant Prostate Cancer” (J Med Chem, 2023)
